Measured values from paper PMC6155387, “Alkoxy and Enediyne Derivatives Containing 1,4-Benzoquinone Subunits—Synthesis and Antitumor Activity” (Molecules : A Journal of Synthetic Chemistry and Natural …, 2017).

How the values were obtained:
Format in all cases: cell-based, human
C-32 = assay: antiproliferative activity (WST-1), melanoma C-32; settings: for IC50: Homo sapiens, C32, melanoma C-32, 72 h, WST-1, Neg: negative in the concentration used, read-out: IC50 ± SD C-32; for SI (IC50 HFF-1/IC50 cancer line) C-32: selectivity index, HFF-1 vs C-32
Method: (§1) Biological activity of the tested compounds was assessed in vitro using cultured cell lines: melanoma C-32 (ATCC, Rockville, MD, USA), glioblastoma SNB-19 (DSMZ, Braunschweig, Germany), breast cancer MDA-MB-231 (ATCC, Rockville, MD, USA), and normal human fibroblasts derived from foreskin HFF-1 (ATCC, Rockville, MD, USA). Cell cultures were maintained using DMEM (Lonza, Basel, Switzerland) supplemented with 10% fetal bovine serum (FBS) (Biological Industries Cromwell, CT, USA) and a mixture of penicillin (10,000 U/mL) and streptomycin (10 mg/mL) (Lonza, Basel, Switzerland).
(§2) Cells were cultured using 96-well plates (Nunc Thermo Fisher Scientific, Waltham, MA, USA). Cells were seeded (5 × 10^3 cells/well) and incubated for 24 h in a standard incubator (37 °C, 5% CO2, relative humidity 95%). Subsequently, the medium was replaced with a fresh aliquot containing an examined compound (0.01; 0.05; 0.1; 0.5; 1; 5; 10; 50; 100 µg/mL), and cells were further incubated for another 72 h. Upon the conclusion of incubation, a CVDE test (Aniara, West Chester, OH, USA) using crystal violet was performed to assess the relative number of cells in the culture. A WST-1 test (Roche) was performed to examine the metabolic activity of cells and test for the presence of LDH in the medium (Roche Diagnostics GmbH, Mannheim, Germany), allowing for the assessment of the relative number of dead cells (i.e., cytotoxicity of the examined compound). UVM340 microplate readers (BIOGENET, Józefów, Poland) were used to read absorbance values.
(§3) WST-1 colorimetric assay for cell proliferation (Roche Diagnostics GmbH, Mannheim, Germany, reagent kit cat. 11644807001) is based on the viable cells’ ability to cleave the bright red-colored stable tetrazolium salt WST-1 to dark red soluble formazan. This bioreduction occurs under the influence of mitochondrial dehydrogenases (depends mostly on production of NAD(P)H in viable cells). The amount of formazan dye formed correlates directly with the number of metabolically active cells in the culture and is measured by absorbance (λ = 450 nm) following 1 h incubation of cells with the reagent.

SNB-19 = assay: antiproliferative activity (WST-1), glioblastoma SNB-19; settings: for IC50: Homo sapiens, glioblastoma SNB-19, 72 h, WST-1, Neg: negative in the concentration used, read-out: IC50 ± SD SNB-19; for SI (IC50 HFF-1/IC50 cancer line) SNB-19: selectivity index, HFF-1 vs SNB-19
Method: as §1, §2, §3

MDA-MB-231 = assay: antiproliferative activity (WST-1), breast cancer MDA-MB-231; settings: for IC50: Homo sapiens, read-out: IC50 ± SD MDA-MB-231; for SI (IC50 HFF-1/IC50 cancer line) MDA-MB-231: selectivity index, HFF-1 vs MDA-MB-231
Method: as §1, §2, §3

HFF-1 = assay: antiproliferative activity (WST-1), normal fibroblasts HFF-1; settings: normal fibroblasts HFF-1, 72 h, Neg: negative in the concentration used; for IC50: Homo sapiens, read-out: IC50 ± SD HFF-1
Method: as §1, §2, §3

[1] = breast cancer MDA-MB-231, 72 h, WST-1, Neg: negative in the concentration used

| IC50 (C-32) [µM] | IC50 (SNB-19) [µM] | IC50 (MDA-MB-231; [1]) [µM] | IC50 ± SD MDA-MB-231 (MDA-MB-231; [1]) | Structure (SMILES) | SI (IC50 HFF-1/IC50 cancer line) C-32 (C-32) | SI (IC50 HFF-1/IC50 cancer line) SNB-19 (SNB-19) | SI (IC50 HFF-1/IC50 cancer line) MDA-MB-231 (MDA-MB-231) | IC50 (HFF-1) [µM] | times more activity against the C-32 cell compared to cisplatin (C-32; C-32, ratio of IC50 vs cisplatin) [times] | times more activity against the C-32 cell compared to (Z)-4-octen-2,6-diyn-1,8-diol (22) (C-32; C-32, ratio of IC50 vs compound 22) [times] | IC50 ± SD HFF-1 (HFF-1) |
| --- | --- | --- | --- | --- | --- | --- | --- | --- | --- | --- | --- |
| 10.5 ± 0.8 | 15.9 ± 0.3 | 23.3 ± 0.3 | – | Cc1ccc2c(n1)C(=O)C(Cl)=C(Cl)C2=O [Compound 3, 6,7-dichloro-2-methyl-5,8-quinolinedione] | 0.95 | 0.63 | 0.43 | 10 ± 1.4 | – | – | – |
| 16.8 ± 0.3 | 18.4 ± 1.7 | 1.4 ± 0.3 | – | CCCOC1=C(Cl)C(=O)c2ccccc2C1=O [Compound 4, 2-Chloro-3-propoxy-1,4-naphtoquinon] | 0.88 | 0.80 | 10.57 | 14.8 ± 0.9 | – | – | – |
| 4 ± 0.1 | 3.8 ± 0.1 | 6.9 ± 1.9 | – | C=CCOC1=C(Cl)C(=O)c2ccccc2C1=O [Compound 5, 2-Chloro-3-(2-propenoxy)-1,4-naphthoquinon] | 0.95 | 1.00 | 0.55 | 3.8 ± 0.8 | – | – | – |
| 3.2 ± 0.6 | 8.4 ± 1.2 | 21 ± 1.5 | – | C#CCOC1=C(Cl)C(=O)c2ccccc2C1=O [Compound 6, 2-Chloro-3-(2-propynoxy)-1,4-naphthoquinon] | 1.22 | 0.46 | 0.19 | 3.9 ± 0.5 | – | – | – |
| 26.8 ± 1.9 | 19.8 ± 1.4 | 22.2 ± 1.4 | – | CCCOC1=C(Cl)C(=O)c2ccc(C)nc2C1=O [Compound 10, 6-Chloro-2-methyl-7-propoxy-5,8-quinolinedione] | 0.59 | 0.80 | 0.71 | 15.8 ± 1.8 | – | – | – |
| 168 ± 6.2 | 33.8 ± 1.3 | 24.6 ± 2.9 | – | C=CCOC1=C(Cl)C(=O)c2ccc(C)nc2C1=O [Compound 11, 6-Chloro-2-methyl-7-(2-propenoxy)-5,8-quinolinedione] | 0.12 | 0.59 | 0.82 | 20.1 ± 1.2 | – | – | – |
| 208 ± 4.6 | 19.5 ± 1 | 17.2 ± 2.5 | – | C#CCOC1=C(Cl)C(=O)c2ccc(C)nc2C1=O [Compound 12, 6-Chloro-2-methyl-7-(2-propynoxy)-5,8-quinolinedione] | 0.07 | 0.72 | 0.81 | 14 ± 2.4 | – | – | – |
| 131 ± 2.4 | 25.7 ± 1.4 | 71.3 ± 3.9 | – | CCCOC1=C(OCCC)C(=O)c2nc(C)ccc2C1=O [Compound 19, 2-Methyl-6,7-dipropoxy-5,8-quinolinedione] | 0.14 | 0.69 | 0.25 | 17.8 ± 1.8 | – | – | – |
| 18.9 ± 1.7 | 16.6 ± 3 | 26.8 ± 1.2 | – | C=CCOC1=C(OCC=C)C(=O)c2nc(C)ccc2C1=O [Compound 20, 2-Methyl-6,7-di(2-propenoxy)-5,8-quinolinedione] | 0.03 | 0.04 | 0.02 | 0.6 ± 0.2 | – | – | – |
| 21.1 ± 1.2 | 24.5 ± 1.1 | 23.2 ± 1.5 | – | C#CCOC1=C(OCC#C)C(=O)c2nc(C)ccc2C1=O [Compound 21, 2-Methyl-6,7-di(2-propynoxy)-5,8-qunolinedione] | 0.69 | 0.59 | 0.63 | 14.5 ± 2.6 | – | – | – |
| 3.1 ± 0.1 | 2.4 ± 0.1 | 110 ± 8.1 | – | O=C1C(Cl)=C(OCC#CC=CC#CCO)C(=O)c2ncccc21 [Compound 24, 6-Chloro-7-(8-hydroxy-4-octen-2,6-diynyloxy)-5,8-quinolinedione] | – | – | – | – | 5 | 51 | Neg |
| 116 ± 2.9 | 169 ± 4.8 | 16.5 ± 1.9 | – | Cc1ccc2c(n1)C(=O)C(OCC#CC=CC#CCO)=C(Cl)C2=O [Compound 25, 6-Chloro-7-(8-hydroxy-4-octen-2,6-diynyloxy)-2-methyl-5,8-quinolinedione] | 0.23 | 0.16 | – | 27.1 ± 1.1 | – | – | – |

The next lines start with the compound.

| Structure (SMILES) | IC50 (C-32) [µM] | IC50 (SNB-19) [µM] | IC50 (MDA-MB-231; [1]) [µM] | IC50 ± SD MDA-MB-231 (MDA-MB-231; [1]) | SI (IC50 HFF-1/IC50 cancer line) C-32 (C-32) | SI (IC50 HFF-1/IC50 cancer line) SNB-19 (SNB-19) | SI (IC50 HFF-1/IC50 cancer line) MDA-MB-231 (MDA-MB-231) | IC50 (HFF-1) [µM] | times more activity against the C-32 cell compared to cisplatin (C-32; C-32, ratio of IC50 vs cisplatin) [times] | times more activity against the C-32 cell compared to (Z)-4-octen-2,6-diyn-1,8-diol (22) (C-32; C-32, ratio of IC50 vs compound 22) [times] | IC50 ± SD HFF-1 (HFF-1) |
| --- | --- | --- | --- | --- | --- | --- | --- | --- | --- | --- | --- |
| O=C1C(Cl)=C(Cl)C(=O)c2ccccc21 [Compound 1, 2,3-Dichloro-1,4-naphtoquinon, reference compound] | 25 ± 0.3 | 26.6 ± 0.5 | 31.9 ± 2.7 | – | 0.62 | 0.59 | 0.49 | 15.6 ± 0.3 | – | – | – |
| CCCOC1=C(OCCC)C(=O)c2ccccc2C1=O [Compound 13, 2,3-Dipropoxy-1,4-naphtoquinon] | 22.6 ± 0.8 | 19.9 ± 1.4 | 22.6 ± 2.3 | – | 0.48 | 0.54 | 0.48 | 10.8 ± 0.5 | – | – | – |
| C=CCOC1=C(OCC=C)C(=O)c2ccccc2C1=O [Compound 14, 2,3-di(2-Propenoxy)-1,4-naphthoquinon] | 10.6 ± 0.6 | 19.6 ± 1 | 17.9 ± 0.8 | – | 0.42 | 0.22 | 0.25 | 4.4 ± 0.9 | – | – | – |
| C#CCOC1=C(OCC#C)C(=O)c2ccccc2C1=O [Compound 15, 2,3-di(2-Propynoxy)-1,4-naphthoquinon] | 21.7 ± 0.6 | 18.6 ± 0.7 | – | – | 0.62 | 0.73 | – | – | – | – | – |
| OCC#C/C=C\C#CCO [Compound 22, (Z)-oct-4-ene-2,6-diyne-1,8-diol] | 159 ± 4.6 | 250 ± 4.3 | – | Neg | 1.64 | 1.04 | 1.85 | 260 ± 5.6 | – | – | – |
| O=C1C(Cl)=C(OCC#CC=CC#CCO)C(=O)c2ccccc21 [Compound 23, 2-Chloro-3-(8-hydroxy-4-octen-2,6-diynyloxy)-1,4-naphthoquinon] | 145 ± 4.8 | 186 ± 5 | 22.5 ± 2.4 | – | 0.67 | 0.52 | – | 97.6 ± 4 | – | – | – |
| O=C1C2=C(OCC#C/C=C\C#CCO2)C(=O)c2ccccc21 [Compound 26, 8-Octen-6,10-diynyl-1,4-dioxocyclododeca[2,3-g]-1,4-naphthoquinon] | 30.3 ± 3.1 | 22.8 ± 1.4 | 2 ± 0.2 | – | 0.58 | 0.77 | – | 17.5 ± 1.3 | – | – | – |
| O=C1C2=C(OCC#C/C=C\C#CCO2)C(=O)c2ncccc21 [Compound 27, 8-Octen-6,10-diynyl-1,4-dioxocyclododeca[2,3-g]-5,8-quinolinedione] | 48.4 ± 8.9 | 31.5 ± 2.5 | 25.1 ± 2.4 | – | 0.27 | 0.41 | – | 13 ± 3.4 | – | – | – |
| Cc1ccc2c(n1)C(=O)C1=C(OCC#C/C=C\C#CCO1)C2=O [Compound 28, 8-Octen-6,10-diynyl-1,4-8-octen-6,10-diynyl-1,4-dioxocyclododeca[2,3-g]-2-methyl-5,8-quinolinedione] | 155 ± 3.7 | 157 ± 5.7 | 174 ± 5.9 | – | 0.18 | 0.18 | – | 27.8 ± 1.2 | – | – | – |
